Experimental data reported in patent publication US20260224475A1, “MULTI-COMPONENT INTRAVAGINAL RING” (priority 2023, published 2026).
Where two headings read alike, the source gives them in different places.

Experiments:
[1] = tested on: G. vaginalis; assay: Minimal cidal concentration (MCC); format: cell-based; details: 30 minutes exposure; >3 log decrease in CFU considered cidal
[2] = tested on: VEC-100 tissue
Protocol: VEC-100 tissues were incubated with APIs for 24 hr. Tissue viability was analyzed by MTT and LDH assay and TEER measurements were recorded.

[3] = tested on: lactobacillus; assay: Non-cidal concentrations in lactobacillus (MCC 30 min); format: cell-based
[4] = tested on: human sperm; assay: Sperm motility assay; format: cell-based; details: for Average Motility Reduction: average of nine 3-API checkerboard combinations containing the named API at this dose; for Average CI: average of nine 3-API combinations
Protocol: Fresh human sperm samples were obtained the day of the experiment. 100 mM stock solutions of each API in saline were prepared in advance. Immediately prior to the experiment, solutions of each API concentration to be tested were prepared via dilution with saline. These include solutions of multiple APIs added together.
The effect of each API on sperm motility and viability was determined using human donors, adding 200 μL of API's diluted in sterile saline to 50 μL of fresh semen. For motility assessments, the incubation mixture was incubated for 5 minutes and then 100 sperm were counted under the microscope by two andrology-trained researchers and classified as either non-motile or motile. If motile, the sperm were further classified according to the nature of their motility—from barely twitching with no forward progression to progressively motile. Each experiment was repeated at least three times on different days using different donors to account for natural variations in sperm properties.
The % motility for each experimental condition was calculated by normalizing the fraction of motile sperm in the experimental groups to the fraction of motile sperm in the saline control treated group, setting 100% to the average fraction of motile sperm from control experiments. For example, the % motility at concentration c would be:
Once % motility data was obtained, the synergy was measured with Compusyn software. See Chou et al., CompuSyn for drug combinations: PC software and user's guide: a computer program for quantitation of synergism and antagonism in drug combinations, and the determination of IC50. ED50 and LD50 values, which is incorporated herein by reference in its entirety. Motility data for individual API concentration as well as all double and triple API solutions was entered into the program and analyzed according to the Chou-Talalay Median Effect Principle.
Next, the synergy between each of the APIs was tested to determine if there were any synergistic effects between compounds which would allow for reduced dosages. Each of the three possible two-compound combinations were tested, followed by the combination of all three APIs. […] Synergy was calculated with Compusyn using the Chou-Talalay Median Effect approach and represented as a CI (Combination Index) value. […] The smaller the CI value for a combination, the greater the degree of synergy.
After the two-API combinations were complete, the full three-way synergy was tested using a 3×3×3 checkerboard style assay to test all 27 permutations of three chosen concentrations for each of the three APIs.
From the resulting data, the estimated effects of each of the individual API were isolated by averaging % reduction in motility and the CI values for each of the API concentrations tested. With this 3×3×3 checkerboard assay, each single concentration was tested against nine permutations of the other two APIs, meaning that each cell in Table 4 represents the average of the nine combinations involving the specified API concentration.
Synergy was calculated utilizing the Chou-Talalay median effect principle and Compusyn software which quantifies synergy as a combination index (CI) for each combination. A CI<1 signifies synergy, a CI>1 signifies antagonism and a CI=1 signifies a purely additive effect.

[5] = tested on: C. trachomatis; assay: Bactericidal activity against C. trachomatis (inclusion count in HeLa cells); format: cell-based; details: for inhibition of C. trachomatis infection (in words): absence or presence of 2% VF and 20% SF, 2 hours at room temperature, LA 80 mM
Protocol: C. trachomatis was incubated with actives ±2% VF and 20% SF for 2 hours at room temperature. The mixtures were serially diluted 1/10 in SPG solution, applied on HeLa cells in triplicate. Images were acquired using the Cytation-5 instrument and the inclusion count was analyzed using the Gen5 software in the Cytation-5. Control conditions included HeLa cells challenged with C. trachomatis in the absence of the actives. (FIG. 15).

[6] = tested on: HSV-2 G; assay: HSV-2 plaque reduction assay; format: cell-based; details: 30 min pre-incubation with HSV-2 G in saline, read-out: EC50 (95% confidence interval)
Protocol: The HSV-2 plaque reduction assay was performed to test the anti-HSV-2 activity of ZA, CS and LA. […] Virus controls containing HSV-2 in saline were incubated under the same conditions. After incubation all dilutions and controls were diluted 1/10 in DMEM and tittered using the plaque assay. FIG. 12 and Table 10 show the results. […] The data represented the average of two independent experiments. In Table 10, the molar ratio of CS:LA:ZA in ZS-CA-LA is 1:20:100.

[7] = tested on: human sperm; assay: Sperm-Cervical Mucus Penetration Test (SMPT) in methylcellulose; format: cell-based
[8] = tested on: Ectocervical explants; details: for Non-toxic concentrations in ectocervix MTT and histology 24 hr: single treatment
Protocol: Kruskal-Wallis test with Dunn's multiple comparison) (FIG. 22).
In FIG. 23, ectocervical explants were incubated with the selected concentrations of the APIs for 24 hr in the presence or absence of 5% VF. Explants were fixed, paraffin embedded, sectioned and stained with H&E.
Ectocervical explants were exposed to the APIs 24 hr in the presence or absence of 5% VF. Supernatants were collected and analyzed for pro-inflammatory cytokines.

[9] = tested on: N. gonorrhoeae; assay: Minimal cidal concentration (MCC); format: cell-based; details: for MCC: 30 minutes exposure, >3 log decrease in CFU considered cidal
[10] = tested on: HIV-1BaL; assay: MAGI assay, anti-HIV-1BaL activity in TZMbl cells; format: cell-based; details: read-out: EC50 (95% confidence interval)
Protocol: MAGI assay was performed to test anti-HIV-1BaL activity. […] Virus controls containing HIV-1BaL in saline were incubated under the same conditions. Following incubation, API-HIV-1BaL mixture was diluted 10-fold and added to TZMbl cells. Following 72-hour incubation, the cells were washed and stained with X-gal and fixed. […] Infected cells were counted using CTL instrument.

[11] = tested on: VEC-100 tissue; assay: VEC-100 tissue, repeated exposure (1 hr daily for 5 days; viability, TEER); format: cell-based; details: for Non-toxic concentrations in VEC-100 model TEER and LDH 5 daily exposures: multiple treatments
[12] = Dose 1 (CS 2.95, ZA 4.75, LA 10.26 mM)
[13] = Dose 2 (CS 3.94, ZA 6.34, LA 13.70 mM)
[14] = Dose 3 (CS 5.90, ZA 9.51, LA 20.54 mM)
[15] = single API, 30 min pre-incubation with virus in saline, 10-fold dilution, 72 h on TZMbl cells

CC(O)C(=O)O (racemic) [LA, lactic acid]
MCC [1]: 111 mM | concentration up to which exposure alone did not induce toxicity ([2]; single active, 24 h single exposure, summary of ectocervix and VEC-100 findings): up to 222 mM | Non-toxic concentrations in VEC-100 model TEER and LDH 24 h ([2]; single treatment): 222 mM | Non-cidal concentrations in lactobacillus MCC 30 min [3]: 222 mM | Average Motility Reduction [4, 12]: 54.75% | Average Motility Reduction [4, 13]: 70.74% | Average Motility Reduction [4, 14]: 91.84% | EC50 ([4]; Homo sapiens, Sperm, 5 min, single API (CS/ZA/LA study), saline, 5 min with fresh semen, % motility vs saline control): 20.5 mM | EC90 ([4]; Homo sapiens, Sperm, 5 min, single API (CS/ZA/LA study), saline, 5 min with fresh semen, % motility vs saline control, read-out: EC90): 28.7 mM | EC90 ([4]; Homo sapiens, Sperm, Table 16, concentration of the named API in the CS + ZL + LA combination (cf. Table 7), read-out: Anti-Sperm concentrations Total motility (EC90)): 21 mM | EC50 ([4]; Homo sapiens, Sperm, single API (CS/ZL/LA study)): 21 mM | EC90 ([4]; Homo sapiens, Sperm, single API (CS/ZL/LA study), read-out: EC90): 29 mM | EC90 ([4]; Homo sapiens, Sperm, single API, read-out: Reduction of Sperm Motility EC90 [95% CI] (concentration to inhibit total sperm motility)): 29 mM | MIC (concentration to inhibit progressive sperm motility) ([4]; single API): 20 mM | anti-C. trachomatis activity (in words) ([5]; LA concentrations lower than 80 mM): no activity was observed | inhibition of C. trachomatis infection (in words) [5]: significantly inhibited infection | EC50 ([6]; Human alphaherpesvirus 2, single API): 0.16 mM | EC90 ([7]; Homo sapiens, Sperm, 0.5 h, single API, 1% methylcellulose, 30 minutes, read-out: Inhibition of Sperm Mucus Penetration EC90 [95% CI] (Migration of vanguard sperm in methyl cellulose spiked with API)): 5 mM | EC90 ([7]; Homo sapiens, Sperm, Table 16, concentration of the named API in the CS + ZL + LA combination (cf. Table 7), read-out: Anti-Sperm concentrations Sperm-mucus penetration (EC90)): 1.5 mM | Non-toxic concentrations based on rat vaginal irritation study 10 days exposure (rat, in vivo, 10 days): 200 mM | Ectocervix: single exposure (MTT, Histology, CC) 24 h, 5% VF ([8]; 111 mM): No Tox | Ectocervix: single exposure (MTT, Histology, CC) 24 h, No VF ([8]; 111 mM): No Tox | Ectocervix: single exposure (MTT, Histology, CC) 24 h, 5% VF ([8]; 222 mM): No Tox | Ectocervix: single exposure (MTT, Histology, CC) 24 h, No VF ([8]; 222 mM): No Tox | Non-toxic concentrations in ectocervix MTT and histology 24 hr [8]: 222 mM | MCC 10% AB Serum [9]: 111 mM | MCC 30% AB Serum [9]: 111 mM | MCC [9]: 111 mM | MCC No Serum [9]: 111 mM | EC50 ([10]; TZM-bl): 2.5 mM | VEC-100 single exposure (MTT, TEER and LDH) day 1-5 24 h No VF ([11]; […] mM): No Tox | Non-toxic concentrations in VEC-100 model TEER and LDH 5 daily exposures [11]: 22 mM

O=S(=O)([O-])[O-].[Cu+2] [CS, copper sulfate]
inhibition of C. trachomatis infection (in words) [5]: significantly inhibited infection | EC50 ([6]; single API): 0.009 mM | EC50 [10, 15]: 0.183 mM

CC(=O)[O-].CC(=O)[O-].[Zn+2] [ZA, zinc acetate]
MCC [1]: > 100 mM | VEC-100: Single exposure (MTT, TEER and LDH) 24 h, No VF ([2]; 100 mM): No Tox | Average Motility Reduction [4, 12]: 63.47% | Average CI [4, 12]: 0.48 | Average Motility Reduction [4, 13]: 73.77% | Average CI [4, 13]: 0.47 | Average Motility Reduction [4, 14]: 80.09% | Average CI [4, 14]: 0.45 | EC50 ([4]; single API (CS/ZA/LA study), saline, 5 min with fresh semen, % motility vs saline control): 19 mM | EC90 ([4]; single API (CS/ZA/LA study), saline, 5 min with fresh semen, % motility vs saline control, read-out: EC90): 33.2 mM | EC50 ([6]; single API): 0.78 mM | Ectocervix: single exposure (MTT, Histology, CC) 24 h, 5% VF ([8]; 100 mM): No Tox | Ectocervix: single exposure (MTT, Histology, CC) 24 h, No VF ([8]; 100 mM): No Tox | MCC 10% AB Serum [9]: 100 mM | MCC 30% AB Serum [9]: >100 mM | MCC [9]: 100 mM | MCC No Serum [9]: 100 mM | EC50 [10, 15]: 1.96 mM

CC(O)C(=O)[O-].CC(O)C(=O)[O-].[Zn+2] (stereo not shown) [ZL, zinc lactate]
EC90 ([4]; Table 16, concentration of the named API in the CS + ZL + LA combination (cf. Table 7), read-out: Anti-Sperm concentrations Total motility (EC90)): 22 mM | EC90 ([4]; Table 18, concentration of the named API in the CS + ZL + LA combination, read-out: Anti-Sperm concentrations Total motility (EC90)): 22 mM | MIC (concentration to inhibit progressive sperm motility) ([4]; single API): 30 mM | EC50 ([4]; single API (CS/ZL/LA study)): 45 mM | EC90 ([4]; single API (CS/ZL/LA study), read-out: EC90): 94 mM | EC90 ([4]; single API, read-out: Reduction of Sperm Motility EC90 [95% CI] (concentration to inhibit total sperm motility)): 94 mM | inhibition of C. trachomatis infection (in words) [5]: exception | EC90 ([7]; Table 16, concentration of the named API in the CS + ZL + LA combination (cf. Table 7), read-out: Anti-Sperm concentrations Sperm-mucus penetration (EC90)): 5 mM | EC90 ([7]; Table 18, concentration of the named API in the CS + ZL + LA combination, read-out: Anti-Sperm concentrations Sperm-mucus penetration (EC90)): 5 mM | EC90 ([7]; single API, 1% methylcellulose, 30 minutes, read-out: Inhibition of Sperm Mucus Penetration EC90 [95% CI] (Migration of vanguard sperm in methyl cellulose spiked with API)): 13 mM | Non-toxic concentrations based on rat vaginal irritation study 10 days exposure (10 days exposure): 50 mM | Ectocervix: single exposure (MTT, Histology, CC) 24 h, 5% VF ([8]; 25 mM): No Tox | Ectocervix: single exposure (MTT, Histology, CC) 24 h, No VF ([8]; 25 mM): No Tox | Ectocervix: single exposure (MTT, Histology, CC) 24 h, 5% VF ([8]; 50 mM): No Tox | Ectocervix: single exposure (MTT, Histology, CC) 24 h, No VF ([8]; 50 mM): No Tox | Ectocervix: single exposure (MTT, Histology, CC) 24 h, 5% VF ([8]; 100 mM): No Tox | Ectocervix: single exposure (MTT, Histology, CC) 24 h, No VF ([8]; 100 mM): No Tox | Non-toxic concentrations in ectocervix MTT and histology 24 hr [8]: 100 mM | MCC 10% AB Serum [9]: >100 mM | MCC 30% AB Serum [9]: >100 mM | MCC No Serum [9]: >100 mM | inhibitory activity (in words) ([9]; ± human serum): not inhibitory | VEC-100 single exposure (MTT, TEER and LDH) day 1-5 24 h No VF ([11]; 10 mM): No Tox | VEC-100 single exposure (MTT, TEER and LDH) day 1-5 24 h No VF ([11]; 21 mM): No Tox | Non-toxic concentrations in VEC-100 model TEER and LDH 5 daily exposures [11]: 21 mM

Triton [reference compound]
VEC-100 single exposure (MTT, TEER and LDH) day 1-5 24 h No VF ([11]; control, concentration not given): Tox
